According to patent US10597388B2, “Pyridazinone herbicides” (FMC CORPORATION, priority 2014, dated 2020):

What was measured:
Test in all cases: Test C greenhouse herbicide test, pre- and postemergence
Type in all cases: in vivo
[1] = test system: foxtail, giant (giant foxtail, Setaria faberii)
Method in brief: (§1)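 Percent-control ratings (0 none, 100 complete) came from visual comparison with controls held alongside in the greenhouse for 13–15 d. Treatments covered soil application at sowing and foliar application to young plants 2–18 cm tall.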

[2] = test system: crabgrass, large (large crabgrass, Digitaria sanguinalis)
Method in brief: as §1

soybean (Glycine max) = test system: soybean (Glycine max)
Method in brief: as §1

[3] = test system: nutsedge, yellow (yellow nutsedge, Cyperus esculentus)
Method in brief: as §1

[4] = test system: wheat (winter wheat, Triticum aestivum)
Method in brief: as §1

[5] = test system: waterhemp (common waterhemp, Amaranthus rudis)
Method in brief: as §1

[6] = test system: barnyardgrass (Echinochloa crus-galli)
Method in brief: as §1

[7] = test system: oilseed rape (Brassica napus)
Method in brief: as §1

[8] = test system: johnsongrass (Sorghum halepense)
Method in brief: as §1

[9] = test system: ragweed (common ragweed, Ambrosia elatior)
Method in brief: as §1

[10] = test system: lambsquarters (Chenopodium album)
Method in brief: as §1

[11] = test system: galium (catchweed bedstraw, Galium aparine)
Method in brief: as §1

[12] = Postemergence, 31 g ai/ha, 0 to 100 scale (0 no effect, 100 complete control)
[13] = Postemergence, 125 g ai/ha, scale 0 to 100, 0 is no effect, 100 is complete control
[14] = Postemergence, 250 g ai/ha, scale 0 to 100, 0 no effect, 100 complete control, 13 to 15 d
[15] = Preemergence, 31 g ai/ha, scale 0 to 100, 0 is no effect, 100 is complete control
[16] = Preemergence, 62 g ai/ha, scale 0 to 100, 0 is no effect, 100 is complete control
[17] = Preemergence, 125 g ai/ha, scale 0 to 100, 0 is no effect, 100 is complete control
[18] = Preemergence, 250 g ai/ha, scale 0 to 100, 0 no effect, 100 complete control
[19] = postemergence, 62 g ai/ha, scale 0 to 100, 0 no effect, 100 complete control

Cc1nn(C)c(=O)c(-c2ccc(Br)c3ccccc23)c1O [Compound 75]
20: Plant response rating, Crabgrass, Large [2, 14] | Soybean plant response rating (soybean (Glycine max); [12]) | Plant response rating, Soybean (soybean (Glycine max); [16]) | Nutsedge, Yellow plant response rating [3, 19] | Plant response rating, Barnyardgrass [6, 14] | Plant response rating, Johnsongrass [8, 16] | Plant response rating, Johnsongrass [8, 17]
10: Plant response rating, Foxtail, Giant [1, 14] | Plant response rating, Crabgrass, Large [2, 16] | Crabgrass, Large plant response rating [2, 19] | Plant response rating, Soybean (soybean (Glycine max); [14]) | Plant response rating, Wheat [4, 17] | Plant response rating, Johnsongrass [8, 14] | Johnsongrass plant response rating [8, 18]
75: Foxtail, Giant plant response rating [1, 18] | Plant response rating, Crabgrass, Large [2, 15] | Nutsedge, Yellow plant response rating [3, 18]
80: Plant response rating, Oilseed Rape [7, 14] | Plant response rating, Ragweed [9, 15]
35: Plant response rating, Soybean (soybean (Glycine max); [13]) | Soybean plant response rating (soybean (Glycine max); [19])
70: Plant response rating, Foxtail, Giant [1, 17] | Plant response rating, Nutsedge, Yellow [3, 14] | Oilseed Rape plant response rating [7, 12] | Plant response rating, Oilseed Rape [7, 16] | Oilseed Rape plant response rating [7, 19]
50: Crabgrass, Large plant response rating [2, 18] | Plant response rating, Nutsedge, Yellow [3, 13] | Plant response rating, Barnyardgrass [6, 17]
98: Oilseed Rape plant response rating [7, 18] | Galium plant response rating [11, 18]
0: Plant response rating, Soybean (soybean (Glycine max); [15]) | Wheat plant response rating [4, 12] | Plant response rating, Wheat [4, 13] | Plant response rating, Wheat [4, 14] | Plant response rating, Wheat [4, 15] | Plant response rating, Wheat [4, 16] | Wheat plant response rating [4, 19] | Plant response rating, Johnsongrass [8, 15]
95: Ragweed plant response rating [9, 12]
45: Plant response rating, Foxtail, Giant [1, 16] | Plant response rating, Soybean (soybean (Glycine max); [17])
85: Barnyardgrass plant response rating [6, 18] | Plant response rating, Ragweed [9, 16] | Ragweed plant response rating [9, 19] | Plant response rating, Lambsquarters [10, 17]
30: Plant response rating, Oilseed Rape [7, 15]
55: Soybean plant response rating (soybean (Glycine max); [18])
15: Plant response rating, Nutsedge, Yellow [3, 15] | Plant response rating, Barnyardgrass [6, 13]
90: Plant response rating, Oilseed Rape [7, 13] | Plant response rating, Oilseed Rape [7, 17] | Plant response rating, Ragweed [9, 17] | Lambsquarters plant response rating [10, 18] | Galium plant response rating [11, 12] | Plant response rating, Galium [11, 13] | Plant response rating, Galium [11, 14] | Plant response rating, Galium [11, 15] | Plant response rating, Galium [11, 16] | Plant response rating, Galium [11, 17] | Galium plant response rating [11, 19]
5: Foxtail, Giant plant response rating [1, 12] | Plant response rating, Foxtail, Giant [1, 13] | Plant response rating, Foxtail, Giant [1, 15] | Foxtail, Giant plant response rating [1, 19] | Crabgrass, Large plant response rating [2, 12] | Plant response rating, Crabgrass, Large [2, 13] | Wheat plant response rating [4, 18] | Plant response rating, Barnyardgrass [6, 15] | Johnsongrass plant response rating [8, 12] | Plant response rating, Johnsongrass [8, 13] | Johnsongrass plant response rating [8, 19]
25: Plant response rating, Crabgrass, Large [2, 17] | Nutsedge, Yellow plant response rating [3, 12] | Barnyardgrass plant response rating [6, 12] | Plant response rating, Barnyardgrass [6, 16] | Barnyardgrass plant response rating [6, 19]
65: Plant response rating, Nutsedge, Yellow [3, 17] | Plant response rating, Lambsquarters [10, 15]
40: Plant response rating, Nutsedge, Yellow [3, 16]
100: Waterhemp plant response rating [5, 12] | Plant response rating, Waterhemp [5, 13] | Plant response rating, Waterhemp [5, 14] | Plant response rating, Waterhemp [5, 15] | Plant response rating, Waterhemp [5, 16] | Plant response rating, Waterhemp [5, 17] | Waterhemp plant response rating [5, 18] | Waterhemp plant response rating [5, 19] | Plant response rating, Ragweed [9, 13] | Plant response rating, Ragweed [9, 14] | Ragweed plant response rating [9, 18] | Lambsquarters plant response rating [10, 12] | Plant response rating, Lambsquarters [10, 13] | Plant response rating, Lambsquarters [10, 14] | Plant response rating, Lambsquarters [10, 16] | Lambsquarters plant response rating [10, 19]

CCC(=O)Oc1c(C)nn(C)c(=O)c1-c1c(C)ccc2ccccc12 [Compound 78]
40: Lambsquarters plant response rating [10, 12]
35: Plant response rating, Nutsedge, Yellow [3, 13]
0: Soybean plant response rating (soybean (Glycine max); [12]) | Soybean plant response rating (soybean (Glycine max); [19]) | Nutsedge, Yellow plant response rating [3, 12] | Wheat plant response rating [4, 12] | Oilseed Rape plant response rating [7, 12] | Plant response rating, Oilseed Rape [7, 13] | Oilseed Rape plant response rating [7, 19]
15: Foxtail, Giant plant response rating [1, 12] | Barnyardgrass plant response rating [6, 12]
90: Plant response rating, Waterhemp [5, 14] | Waterhemp plant response rating [5, 19]
70: Lambsquarters plant response rating [10, 19] | Galium plant response rating [11, 12]
95: Plant response rating, Galium [11, 14]
60: Plant response rating, Nutsedge, Yellow [3, 14] | Plant response rating, Ragweed [9, 13]
30: Plant response rating, Barnyardgrass [6, 13]
20: Plant response rating, Foxtail, Giant [1, 13] | Plant response rating, Soybean (soybean (Glycine max); [14]) | Ragweed plant response rating [9, 19]
10: Plant response rating, Crabgrass, Large [2, 13] | Plant response rating, Crabgrass, Large [2, 14] | Plant response rating, Wheat [4, 14] | Ragweed plant response rating [9, 12]
75: Waterhemp plant response rating [5, 12] | Plant response rating, Ragweed [9, 14] | Plant response rating, Lambsquarters [10, 13]
100: Plant response rating, Lambsquarters [10, 14]
25: Plant response rating, Foxtail, Giant [1, 14] | Nutsedge, Yellow plant response rating [3, 19] | Plant response rating, Barnyardgrass [6, 14] | Barnyardgrass plant response rating [6, 19]
80: Plant response rating, Waterhemp [5, 13] | Plant response rating, Galium [11, 13] | Galium plant response rating [11, 19]
5: Foxtail, Giant plant response rating [1, 19] | Crabgrass, Large plant response rating [2, 12] | Crabgrass, Large plant response rating [2, 19] | Plant response rating, Soybean (soybean (Glycine max); [13]) | Plant response rating, Wheat [4, 13] | Wheat plant response rating [4, 19] | Plant response rating, Oilseed Rape [7, 14] | Johnsongrass plant response rating [8, 12] | Plant response rating, Johnsongrass [8, 13] | Plant response rating, Johnsongrass [8, 14] | Johnsongrass plant response rating [8, 19]
